Data: patent US11279676B2 (CHIA TAI TIANQING PHARMACEUTICAL GROUP CO., LTD., priority 2018, dated 2022)
Read-outs that look alike come from different tables or passages of the source. Blank lines part the entries; values can stand above or below the molecule they belong to.

How the values were obtained:
[1] = Hygroscopicity test (Chinese Pharmacopoeia 2015, General Chapter 9103); assay type: physicochemical; settings: Guidelines for Drug Moisture Test, Chinese Pharmacopoeia 2015 Chapter 9103
Experimental: Took the crystalline form A, crystalline form B, crystalline form D and crystalline form E of the compound of formula I to conduct test according to the “Guidelines for Drug Moisture Test” of the Chinese Pharmacopoeia 2015 Edition Fourth General Chapter 9103, and respectively, the weight gain of samples due to hygroscopicity was calculated.

[2] = Pharmacokinetic test in rats (relative bioavailability after gavage); assay type: in vivo; settings: intragastric 20 mg/kg in gavage capsules; for Relative F: relative to crystalline form A (100)
Experimental: The relative bioavailability of the compound of formula I in vivo was evaluated, after SD rats were gavaged with crystalline form A, crystalline form B, crystalline form D and crystalline form E of the compound of formula I.
Test samples: crystalline form A, crystalline form B, crystalline form D and crystalline form E of the compound of formula I filled in No. 9 gavage capsules separately
SD rats, weighing 180-200 g, after adaptation of 3-5 days, were randomly divided into 4 groups, with 4 rats in each group, and were respectively administered of crystalline form A, crystalline form B, crystalline form D and crystalline form E of the compound of formula I by intragastric administration at a dose of 20 mg/kg. The rats were fasted for 12 hours before administration and given food 4 hours after administration. Drinking water was free before and after the experiment and during the experiment.
After administration, the collection time points were 0.167 h (10 min), 0.5 h, 1 h, 2 h, 4 h, 6 h, 8 h, 10 h, and 24 h. About 0.3 mL of blood was collected from the orbital venous plexus and placed in a centrifuge tube containing EDTA-K2. Stored at 4° C. Centrifuged at a condition of 4° C., 4000 rpm, 10 min within 1 h, and stored at −20° C. to be tested.
Pipetted 50 μL of plasma sample to be tested, added 300 μL of acetonitrile solution containing internal standard, shook and mixed for 5 min, centrifuged at 13000 rpm for 10 min, took 30 μL of supernatant, added 150 μL of 50% acetonitrile aqueous solution, and pipetted 1 μL for LC/MS/MS analysis and determination.
Making use of liquid chromatography-tandem mass spectrometry (LC-MS/MS), with diazepam as an internal standard (IS), protein precipitation method was used to extract the analyte and internal standard from the plasma, and reverse phase chromatography column was adopted to separate compounds and internal standard. The analyte was quantified by electrospray ionization (ESI) mode of a tandem quadrupole mass spectrometer.

[3] = SD, rat, plasma, po, 20 mg/kg, mean of 4 rats
[4] = SD rats, plasma, mean of 4 rats, listed as Crystalline Form B of the Compound of Formula I
[5] = SD rats, plasma, mean of 4 rats, listed as Crystalline Form D of the Compound of Formula I
[6] = SD rats, plasma, mean of 4 rats, listed as Crystalline Form E of the Compound of Formula I

- Weight Gain due to Hygroscopicity [1]: Less than 0.2%
- Relative F ([2]; SD rats, listed as Crystalline Form A of the Compound of Formula I): 100%
- AUC(0-inf) [2, 3]: 4960 ng·h/mL
- AUC(0-t) [2, 3]: 4700 ng·h/mL
- half-life [2, 3]: 4.93 h
- MRT last ([2]; SD, rat, plasma, po, 20 mg/kg, plasma, mean of 4 rats, read-out: MRT(0-t)): 8.51 h
- Tmax ([2]; SD, rat, plasma, po, 20 mg/kg, plasma, mean of 4 rats, read-out: Tmax): 6 h
SMILES: COc1cc2c(Oc3ccc(NC(=O)C4(C(=O)Nc5ccc(F)cc5)CC4)cc3F)ccnc2cc1OCC1(NC2CCCC2)CC1 [Example 1]

- MRT(0-t) [2, 4]: 6.72 h
- Tmax [2, 4]: 4.00 h
- t1/2 [2, 4]: 5.30 h
- Relative F ([2]; SD rats, listed as Crystalline Form B of the Compound of Formula I): 134%
SMILES: COc1cc2c(Oc3ccc(NC(=O)C4(C(=O)Nc5ccc(F)cc5)CC4)cc3F)ccnc2cc1OCC1(NC2CCCC2)CC1 [Example 2]

- MRT(0-t) [2, 5]: 8.73 h
- Tmax [2, 5]: 6.00 h
- t1/2 [2, 5]: 5.20 h
- Relative F ([2]; SD rats, listed as Crystalline Form D of the Compound of Formula I): 72%
SMILES: COc1cc2c(Oc3ccc(NC(=O)C4(C(=O)Nc5ccc(F)cc5)CC4)cc3F)ccnc2cc1OCC1(NC2CCCC2)CC1 [Example 4]

- MRT(0-t) [2, 6]: 7.30 h
- Tmax [2, 6]: 4.50 h
- t1/2 [2, 6]: 4.61 h
- Relative F ([2]; SD rats, listed as Crystalline Form E of the Compound of Formula I): 84%
SMILES: COc1cc2c(Oc3ccc(NC(=O)C4(C(=O)Nc5ccc(F)cc5)CC4)cc3F)ccnc2cc1OCC1(NC2CCCC2)CC1 [Example 5]
